Assay results reported in ChEMBL document CHEMBL1201861, “Genomics of Drug Sensitity in Cancer screening data, Wellcome Trust Sanger Institute”.
Values joined by “and” are separate entries in the source; they are usually repeats but may differ in a detail not shown here. Equal values may be shown once.

How the values were obtained:
HuO9 = test: cells; type: functional, cell-based, Homo sapiens;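 also: growth inhibition of HuO9 cells, read out with a cell viability assay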
Description: SANGER: Inhibition of human HuO9 cell growth in a cell viability assay.

NCI-H2029 = test: cells; type: functional, cell-based; settings: Homo sapiens;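 also: Read-out is a viability assay on the cultured cells, and IC50 is the concentration that suppresses cell growth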
Description: SANGER: Inhibition of human NCI-H2029 cell growth in a cell viability assay.

NCI-H1048 = test: cells; type: functional, cell-based; settings: Homo sapiens;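 also: growth inhibition of human NCI-H1048 cells, read out with a cell viability assay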
Description: SANGER: Inhibition of human NCI-H1048 cell growth in a cell viability assay.

EW-22 = test: cells; type: functional, cell-based; settings: Homo sapiens;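 also: growth inhibition of the EW-22 cell line, measured with a cell viability readout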
Description: SANGER: Inhibition of human EW-22 cell growth in a cell viability assay.

NCI-H630 = test: cells; type: functional, cell-based, Homo sapiens;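 also: growth inhibition of NCI-H630 cells, read out with a cell viability assay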
Description: SANGER: Inhibition of human NCI-H630 cell growth in a cell viability assay.

H-EMC-SS = test: cells; type: functional, cell-based; settings: Homo sapiens
Description: SANGER: Inhibition of human H-EMC-SS cell growth in a cell viability assay.

NBsusSR = test: cells; type: functional, cell-based; settings: Homo sapiens;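 also: growth inhibition of the human cell line, read out with a cell viability assay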
Description: SANGER: Inhibition of human NBsusSR cell growth in a cell viability assay.

NCI-H2291 = test: cells; type: functional, cell-based; settings: Homo sapiens
Description: SANGER: Inhibition of human NCI-H2291 cell growth in a cell viability assay.

NCI-H522 = test: cells; type: functional, cell-based, Homo sapiens;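 also: cell viability assay measuring growth inhibition of human NCI-H522 cells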
Description: SANGER: Inhibition of human NCI-H522 cell growth in a cell viability assay.

SJRH30 = test: cells; type: functional, cell-based; settings: Homo sapiens;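 also: growth inhibition of human SJRH30 cells, read out with a cell viability assay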
Description: SANGER: Inhibition of human SJRH30 cell growth in a cell viability assay.

CHP-134 = test: SANGER: Inhibition of human CHP-134 cell growth in a cell viability assay.; type: functional, cell-based
G-361 = test: cells; type: functional, cell-based, Homo sapiens
RT-4 = test: SANGER: Inhibition of human RT4 cell growth in a cell viability assay.; type: functional, cell-based; settings: rt-4
LU-165 = test: cells; type: functional, cell-based; settings: Homo sapiens
Description: SANGER: Inhibition of human LU-165 cell growth in a cell viability assay.

EB-3 = test: cells; type: functional, cell-based; settings: Homo sapiens;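 also: human EB-3 cells, growth inhibition read out via a cell viability assay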
Description: SANGER: Inhibition of human EB-3 cell growth in a cell viability assay.

MONO-MAC-6 = test: cells; type: functional, cell-based; settings: Homo sapiens;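 also: cell viability assay measuring growth inhibition of human MONO-MAC-6 cells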
Description: SANGER: Inhibition of human MONO-MAC-6 cell growth in a cell viability assay.

PLC-PRF-5 = test: cells; type: functional, cell-based; settings: Homo sapiens;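 also: growth inhibition of human PLC-PRF-5 cells, read out with a viability assay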
Description: SANGER: Inhibition of human PLC-PRF-5 cell growth in a cell viability assay.

SK-CO-1 = test: cells; type: functional, cell-based; settings: Homo sapiens;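 also: growth inhibition of SK-CO-1 cells, determined by a viability readout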
Description: SANGER: Inhibition of human SK-CO-1 cell growth in a cell viability assay.

MES-SA = test: cells; type: functional, cell-based, Homo sapiens; settings: mes-sa;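 also: growth inhibition of human MES-SA cells, read out with a cell viability assay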
Description: SANGER: Inhibition of human MES-SA cell growth in a cell viability assay.

SR = test: cells; type: functional, cell-based; settings: Homo sapiens
Description: SANGER: Inhibition of human SR cell growth in a cell viability assay.

NCI-H2171 = test: cells; type: functional, cell-based; settings: Homo sapiens;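 also: growth inhibition of human NCI-H2171 cells, read out by a cell viability assay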
Description: SANGER: Inhibition of human NCI-H2171 cell growth in a cell viability assay.

TT = test: cells; type: functional, cell-based; settings: Homo sapiens
Description: SANGER: Inhibition of human TT cell growth in a cell viability assay.

NCI-H2141 = test: cells; type: functional, cell-based; settings: Homo sapiens;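 also: growth inhibition of human NCI-H2141 cells, read out with a cell viability assay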
Description: SANGER: Inhibition of human NCI-H2141 cell growth in a cell viability assay.

SNG-M = test: cells; type: functional, cell-based; settings: Homo sapiens
Description: SANGER: Inhibition of human SNG-M cell growth in a cell viability assay.

LOUCY = test: cells; type: functional, cell-based; settings: Homo sapiens;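 also: growth inhibition of human LOUCY cells, read out with a cell viability assay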
Description: SANGER: Inhibition of human LOUCY cell growth in a cell viability assay.

EVSA-T = test: cells; type: functional, cell-based, Homo sapiens; settings: evsa-t;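 also: growth inhibition of EVSA-T cells, read out with a cell viability assay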
Description: SANGER: Inhibition of human EVSA-T cell growth in a cell viability assay.

C-4-II = test: SANGER: Inhibition of human C-4-II cell growth in a cell viability assay.; type: functional, cell-based
DMS-53 = test: cells; type: functional, cell-based, Homo sapiens;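 also: cell viability assay measuring growth inhibition of human DMS-53 cells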
Description: SANGER: Inhibition of human DMS-53 cell growth in a cell viability assay.

TE-15 = test: cells; type: functional, cell-based; settings: Homo sapiens;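 also: cell viability readout of growth inhibition in TE-15 cells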
Description: SANGER: Inhibition of human TE-15 cell growth in a cell viability assay.

TE-441-T = test: cells; type: functional, cell-based; settings: Homo sapiens
Description: SANGER: Inhibition of human TE-441-T cell growth in a cell viability assay.

Caov-3 cell line = test: cells; type: functional, cell-based; settings: Homo sapiens;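 also: cell growth inhibition read out by a viability assay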
Description: SANGER: Inhibition of human Caov-3 cell growth in a cell viability assay.

LB647-SCLC = test: cells; type: functional, cell-based; settings: Homo sapiens;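 also: cell growth inhibition, read out by a viability assay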
Description: SANGER: Inhibition of human LB647-SCLC cell growth in a cell viability assay.

NCI-H719 = test: cells; type: functional, cell-based; settings: Homo sapiens;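 also: growth inhibition of the cultured cell line, read out with a viability assay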
Description: SANGER: Inhibition of human NCI-H719 cell growth in a cell viability assay.

SNU-475 = test: cells; type: functional, cell-based; settings: Homo sapiens
Description: SANGER: Inhibition of human SNU-475 cell growth in a cell viability assay.

KMS-12-PE = test: cells; type: functional, cell-based; settings: Homo sapiens;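 also: growth inhibition of human KMS-12-PE cells, measured with a cell viability assay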
Description: SANGER: Inhibition of human KMS-12-PE cell growth in a cell viability assay.

NCI-H1417 = test: cells; type: functional, cell-based; settings: Homo sapiens;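 also: human NCI-H1417 cells, growth inhibition determined with a cell viability readout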
Description: SANGER: Inhibition of human NCI-H1417 cell growth in a cell viability assay.

SU-DHL-1 = test: SANGER: Inhibition of human SU-DHL-1 cell growth in a cell viability assay.; type: functional, cell-based
MDA-MB-468 = test: cells; type: functional, cell-based; settings: Homo sapiens
Description: SANGER: Inhibition of human MDA-MB-468 cell growth in a cell viability assay.

CCF-STTG1 = test: cells; type: functional, cell-based; settings: Homo sapiens;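 also: growth inhibition of human CCF-STTG1 cells, determined with a cell viability read-out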
Description: SANGER: Inhibition of human CCF-STTG1 cell growth in a cell viability assay.

NCI-H187 = test: cells; type: functional, cell-based; settings: Homo sapiens;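 also: growth inhibition of NCI-H187 cells, read out as cell viability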
Description: SANGER: Inhibition of human NCI-H187 cell growth in a cell viability assay.

CESS = test: SANGER: Inhibition of human CESS cell growth in a cell viability assay.; type: functional, cell-based
IPC-298 = test: SANGER: Inhibition of human IPC-298 cell growth in a cell viability assay.; type: functional, cell-based
DG-75 = test: cells; type: functional, cell-based; settings: Homo sapiens;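 also: growth inhibition of DG-75 cells, read out with a cell viability assay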
Description: SANGER: Inhibition of human DG-75 cell growth in a cell viability assay.

NCI-H838 = test: cells; type: functional, cell-based; settings: Homo sapiens;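 also: growth inhibition of human NCI-H838 cells, read out by a cell viability assay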
Description: SANGER: Inhibition of human NCI-H838 cell growth in a cell viability assay.

EW-7 = test: SANGER: Inhibition of human EW-7 cell growth in a cell viability assay.; type: functional, cell-based; settings: ew-7
HCC1143 = test: cells; type: functional, cell-based; settings: Homo sapiens;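 also: growth inhibition of human HCC1143 cells, read out with a cell viability assay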
Description: SANGER: Inhibition of human HCC1143 cell growth in a cell viability assay.

CPC-N = test: cells; type: functional, cell-based; settings: Homo sapiens;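 also: growth inhibition of CPC-N cells, with a cell viability assay as the readout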
Description: SANGER: Inhibition of human CPC-N cell growth in a cell viability assay.

TUR = test: cells; type: functional, cell-based; settings: Homo sapiens;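 also: growth inhibition of human TUR cells, read out with a cell viability assay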
Description: SANGER: Inhibition of human TUR cell growth in a cell viability assay.

SK-MM-2 = test: cells; type: functional, cell-based; settings: Homo sapiens;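 also: growth inhibition of human SK-MM-2 cells, read out with a cell viability assay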
Description: SANGER: Inhibition of human SK-MM-2 cell growth in a cell viability assay.

MDA-MB-134-VI = test: cells; type: functional, cell-based; settings: Homo sapiens
Description: SANGER: Inhibition of human MDA-MB-134-VI cell growth in a cell viability assay.

DV-90 = test: cells; type: functional, cell-based; settings: Homo sapiens;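 also: Read-out is a viability assay, with IC50 reflecting the drop in DV-90 cell growth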
Description: SANGER: Inhibition of human DV-90 cell growth in a cell viability assay.

EFE-184 = test: cells; type: functional, cell-based; settings: Homo sapiens
Description: SANGER: Inhibition of human EFE-184 cell growth in a cell viability assay.

NCI-H1618 = test: cells; type: functional, cell-based; settings: Homo sapiens;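 also: growth inhibition of human NCI-H1618 cells, measured by a cell viability assay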
Description: SANGER: Inhibition of human NCI-H1618 cell growth in a cell viability assay.

SCLC-21H = test: cells; type: functional, cell-based; settings: Homo sapiens;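 also: growth inhibition of cultured human SCLC-21H cells, read out with a cell viability assay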
Description: SANGER: Inhibition of human SCLC-21H cell growth in a cell viability assay.

NCI-H1734 = test: cells; type: functional, cell-based; settings: Homo sapiens;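 also: growth inhibition of human NCI-H1734 cells, read out with a cell viability assay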
Description: SANGER: Inhibition of human NCI-H1734 cell growth in a cell viability assay.

U-698-M = test: cells; type: functional, cell-based; settings: Homo sapiens
Description: SANGER: Inhibition of human U-698-M cell growth in a cell viability assay.

SMILES: CCOc1nc(NC(=O)Cc2cc(OC)ccc2OC)cc(N)c1C#N
- IC50 (HuO9; Homo sapiens, HuO9): > 10 µM
- IC50 (NCI-H2029): > 10 µM
- IC50 (NCI-H1048): > 10 µM
- IC50 (EW-22): > 10 µM
- IC50 (NCI-H630; Homo sapiens, NCI-H630): > 10 µM
- IC50 (H-EMC-SS): > 10 µM
- IC50 (NBsusSR): > 10 µM
- IC50 (NCI-H2291): > 10 µM
- IC50 (NCI-H522; Homo sapiens, NCI-H522): > 10 µM
- IC50 (SJRH30): > 10 µM
- IC50 (CHP-134): > 10 µM
- IC50 (G-361; Homo sapiens, G-361): > 10 µM

SMILES: CC(=O)O[C@@H]1[C@@H](OC(C)=O)[C@@H](O)[C@H](Oc2c(-c3ccc(O)cc3)oc3cc(O)cc(O)c3c2=O)O[C@H]1C
- IC50 (HuO9; Homo sapiens, HuO9): > 10 µM
- IC50 (NCI-H2029): > 10 µM
- IC50 (NCI-H1048): > 10 µM
- IC50 (EW-22): > 10 µM
- IC50 (NCI-H630; Homo sapiens, NCI-H630): > 10 µM
- IC50 (H-EMC-SS): > 10 µM
- IC50 (NBsusSR): > 10 µM
- IC50 (NCI-H2291): > 10 µM
- IC50 (NCI-H522; Homo sapiens, NCI-H522): > 10 µM
- IC50 (SJRH30): > 10 µM
- IC50 (CHP-134): > 10 µM
- IC50 (G-361; Homo sapiens, G-361): > 10 µM

SMILES: COc1cc(F)c(F)c(Nc2ccc(I)cc2F)c1NS(=O)(=O)C1(CC(O)CO)CC1 (stereo unspecified)
- IC50 (HuO9; Homo sapiens, HuO9): > 5 µM
- IC50 (NCI-H2029): > 5 µM
- IC50 (NCI-H1048): > 5 µM
- IC50 (EW-22): > 5 µM
- IC50 (NCI-H630; Homo sapiens, NCI-H630): > 5 µM
- IC50 (H-EMC-SS): 0.917 µM
- IC50 (NBsusSR): > 5 µM
- IC50 (NCI-H2291): 0.397 µM
- IC50 (NCI-H522; Homo sapiens, NCI-H522): > 5 µM
- IC50 (SJRH30): > 5 µM
- IC50 (CHP-134): > 5 µM

SMILES: O=C1N=C(NCc2cccs2)S/C1=C\c1ccc2ncccc2c1
- IC50 (HuO9; Homo sapiens, HuO9): > 5 µM
- IC50 (NCI-H2029): > 5 µM
- IC50 (NCI-H1048): > 5 µM
- IC50 (EW-22): > 5 µM
- IC50 (NCI-H630; Homo sapiens, NCI-H630): > 5 µM
- IC50 (H-EMC-SS): > 5 µM
- IC50 (NBsusSR): > 5 µM
- IC50 (NCI-H2291): > 5 µM
- IC50 (NCI-H522; Homo sapiens, NCI-H522): > 5 µM
- IC50 (SJRH30): > 5 µM
- IC50 (CHP-134): > 5 µM

SMILES: Cc1cc([C@@H](C)Nc2ccccc2C(=O)O)c2nc(N3CCOCC3)cc(=O)n2c1 [AZD-6482]
- IC50 (RT-4): > 5.12 µM
- IC50 (LU-165): > 5.12 µM
- IC50 (HuO9; huo9): 1.61 µM and > 5.12 µM
- IC50 (EB-3): > 5.12 µM
- IC50 (NCI-H2029): > 5.12 µM
- IC50 (NCI-H1048): 1.23 µM
- IC50 (MONO-MAC-6): > 5.12 µM
- IC50 (PLC-PRF-5): > 5.12 µM
- IC50 (SK-CO-1): > 5.12 µM
- IC50 (MES-SA): > 5.12 µM and 1.11 µM
- IC50 (SR): > 5.12 µM
- IC50 (NCI-H2171): > 5.12 µM
- IC50 (TT): > 5.12 µM
- IC50 (EW-22): > 5.12 µM
- IC50 (NCI-H630; nci-h630): > 5.12 µM
- IC50 (NCI-H2141): > 5.12 µM
- IC50 (SNG-M): > 5.12 µM
- IC50 (LOUCY): > 5.12 µM
- IC50 (EVSA-T): 3.38 µM and > 5.12 µM
- IC50 (H-EMC-SS): > 5.12 µM
- IC50 (C-4-II): > 5.12 µM
- IC50 (DMS-53; Homo sapiens, DMS-53): > 5.12 µM
- IC50 (DMS-53; dms-53): > 5.12 µM
- IC50 (TE-15): 4.67 µM
- IC50 (TE-441-T): > 5.12 µM
- IC50 (Caov-3 cell line): > 5.12 µM
- IC50 (LB647-SCLC): > 5.12 µM
- IC50 (NCI-H719): > 5.12 µM
- IC50 (SNU-475): > 5.12 µM
- IC50 (KMS-12-PE): > 5.12 µM
- IC50 (NCI-H2291): 1.58 µM
- IC50 (NCI-H1417): > 5.12 µM
- IC50 (SU-DHL-1): 0.568 µM
- IC50 (MDA-MB-468): 1.54 µM
- IC50 (CCF-STTG1): 1.43 µM
- IC50 (NCI-H187): > 5.12 µM
- IC50 (CESS): 4.8 µM
- IC50 (NCI-H522; nci-h522): > 5.12 µM
- IC50 (IPC-298): > 5.12 µM
- IC50 (DG-75): > 5.12 µM
- IC50 (NCI-H838): > 5.12 µM
- IC50 (EW-7): 0.864 µM and 3.11 µM
- IC50 (HCC1143): > 5.12 µM
- IC50 (CPC-N): > 5.12 µM
- IC50 (TUR): > 5.12 µM
- IC50 (SK-MM-2): > 5.12 µM
- IC50 (SJRH30): > 5.12 µM
- IC50 (MDA-MB-134-VI): > 5.12 µM
- IC50 (DV-90): > 5.12 µM
- IC50 (EFE-184): > 5.12 µM
- IC50 (NCI-H1618): > 5.12 µM
- IC50 (SCLC-21H): > 5.12 µM
- IC50 (NCI-H1734): > 5.12 µM
- IC50 (U-698-M): > 5.12 µM
- IC50 (G-361; g-361): 3.9 µM and > 5.12 µM
